Tested on: Nanog promoter, Sox2 promoter, Lin28 promoter, Oct4 promoter
Assay: Luciferase assay in the screening device (cells stably carrying pStable promoter-Luc reporter plasmids)
Assay type: cell-based, mouse
Details: 2 mM VPA, reacted with cells for 24 hours, "24 hr cell"; C2C12 / P19 stable clones
Method: The screening is performed after the cells that express various promoters stably being prepared. […] The reporter plasmids whose backbone is constructed by the method mentioned above are transinfected individually into different dishes of host cells. After the reporter plasmids have been introduced into C2C12 or P19 cells, use G418 (Geneticin), a selective antibiotic for Neomycin resistance gene, to screen positive clones because pStable clones carry Neomycin resistance gene. After cell culture, transinfection, stable clone selection, and cells growing as colonies, stable clones in which various different promoters are expressed are obtained. In an embodiment of the present invention, pStable-Nanog-p-Luc plasmid, pStable-Sox2-p-Luc plasmid, pStable-Lin28-p-Luc plasmid and pStable-Oct4-p-Luc plasmid are introduced into both a C2C12 cell line and a P19 cell line. […] The C2C12 cell and P19 cell are cultured in an incubator under normal growth conditions (typically at 37° C., 5% CO2, and saturated humidity). Culture conditions of C2C12 cells and P19 cells are listed in the following list one: After the transfection processes, perform stable clone selection. The transfected cells are cultured in a culture medium containing 800 ug/ml G418. […] In an embodiment of the present invention, harvest cells after cells being reacted with 2 mM VPA for 24 hours and measure luminescence expression of cells. […]

## CCCC(CCC)C(=O)O [VPA, valporic acid]
  level of Luciferase (luminescence expression): higher level of Luciferase

Source: patent publication US20130004959A1, “SCREENING DEVICE CONTAINING NANOG PROMOTER, SOX2 PROMOTER, LIN 28 PROMOTER, OCT4 PROMOTER AND LUCIFERASE GENE AND SCREENING METHOD THEREOF” (NATIONAL CENTRAL UNIVERSITY, priority 2011, published 2013)
